Measured values taken from patent US20220380371A1, “MLL1 INHIBITORS AND ANTI-CANCER AGENTS” (NOVARTIS AG, priority 2019, published 2022).
Where two headings read alike, the source gives them in different places.

Tests used:
[1] = biological target: wild type MLL1 four-member complex (MLL1-4C) (Homo sapiens, UniProt Q03164); assay: MLL1 LC-MS Assay; format: biochemical
Outline: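 Compound pre-incubated 20 min with MLL1-4C and SAM, then H3[1-21]-biotin (H3K4me0) substrate added; final 30 nM enzyme, 2.5 μM SAM, 10 μM peptide in Tris pH 8.0 with MgCl2, DTT, Tween 20, BSA. After 120 min at rt, TFA-quenched SAH quantified by LC-MS/MS with d4-SAH; IC50 from dose-response fit.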

[2] = biological target: wild type MLL1 five-member complex (MLL1-5C) (Homo sapiens, UniProt Q03164); assay: MLL1 Flashplate Assay; format: biochemical; conditions: read-out: MLL1 flash plate
Procedure: MLL1 Flashplate Assay To assess the compound potency in MLL1 Flashplate assay, compounds were serially diluted 3-fold in DMSO to obtain a total of twelve concentrations. Then the test compounds at each concentration (250 nL of each) were transferred by Mosquito into Corning #3675 384-well plate. Solutions (15 μL) of 4.2 nM wild type MLL1 five-member complex (MLL1-5C) in the assay buffer (20 mM Tris-HCl, pH 8.0, 0.01% Tween 20, 1 mM DTT, 0.01% BSA) were added to the wells. A 10 μL solution of 2.5 μM of the peptide substrate H3K4me0 (histone H3[1-21]-Biotin) and 1.25 μM ^3H-SAM in the reaction buffer was then added to initiate each reaction. The final components in the reaction solution include 2.5 nM MLL1-5C, 0.5 μM ^3H-SAM, and 1 μM H3K4me0 with varying concentration of the compounds. A positive control consisted of 2.5 nM MLL1-5C, 0.5 μM ^3H-SAM, and 1 μM substrate in the absence of the test compound, and a negative control consisted of 0.5 μM ^3H-SAM, and 1 μM substrate only. Each reaction was incubated at rt for 90 min, then stopped by addition of 5 μL per of quench solution (0.5 mM SAM in assay buffer). 25 μL of each reaction solution was transferred to FlashPlate streptavidin 384-well microplate (PerkinElmer). After at least 1 h incubation at rt, the wells were washed three times with 0.1% Tween-20 in dH2O using the BioTek plate washer. The plates were then read in MicroBeta (PerkinElmer). The radioactive readouts were then normalized based on the values coming from the positive and negative controls to give percent enzyme activities. The data were then fit to a dose response equation using the program Helios to get the IC50 values of the test compounds.

[3] = tested on: H3K4me3 in MV4-11 cells; assay: MV4-11 H3K4me3 Cellular ELISA Assay; format: cell-based
Outline: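 MV4-11 cells were treated for 48 h with 12-point 1:3 compound dilutions (from 10 mM stock), then histones were acid-extracted with 0.5M HCl and neutralized. H3K4me3 and total H3 were measured by HRP chemiluminescent ELISA, and inhibition versus DMSO after H3 normalization was curve-fitted for IC50.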

[4] = tested on: MV4-11 cells; assay: MV4-11 6-Day Cell Growth CTG (CellTiter-Glo) Assay; format: cell-based; conditions: MV4-11 cell growth CellTiter-Glo, 6 days
Outline: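 MV4-11 AML cells (RPMI 1640, 10% FBS) seeded at 300 cells/well and exposed for 6 days at 37 °C to a 12-point, 1:3 compound series starting at 50 μM final. Viable cells read by CellTiter-Glo luminescence; percent inhibition versus DMSO-only wells fitted to dose-response curves for IC50.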

| IC50 ([1]; read-out: LCMS) | IC50 [2] | IC50 ([3]; 48 hours) | IC50 [4] | IC50 ([3]; Homo sapiens, MV4-11, 48 h) | IC50 ([4]; Homo sapiens, MV4-11, 144 h) | IC50 ([1]; read-out: MLL1 LCMS) | SMILES |
| --- | --- | --- | --- | --- | --- | --- | --- |
| > 0.1 µM | > 0.1 µM | > 3 µM | < 2 µM | – | – | – | Nc1ncnc2c1ncn2Cc1c(Br)cc(Cl)cc1N1CC[C@](N)(CO)C1 (stereo in doubt) [Example 107] |
| > 0.1 µM | 0.06 to 0.1 µM | – | – | > 3 µM | > 3 µM | – | COC[C@@]1(N)CCN(c2cc(Cl)cc(Br)c2Cn2cnc3c(N)ncnc32)C1 [Example 32, (R)-9-(2-(3-amino-3-(methoxymethyl)pyrrolidin-1-yl)-6-bromo-4-chlorobenzyl)-9H-purin-6-amine] |
| 0.05 to 0.1 µM | < 0.06 µM | – | – | > 3 µM | > 3 µM | – | Nc1ncnc2c1ncn2Cc1c(Br)cc(Cl)c(Cl)c1N1CC[C@](N)(C(=O)NC2CC2)C1 [Example 43] |
| 0.05 to 0.1 µM | < 0.06 µM | – | – | < 1.9 µM | > 3 µM | – | Nc1ncnc2c1ncn2Cc1c(Br)c(Cl)c(Cl)c(Cl)c1N1CCC(N)(C(=O)NC2CC2)C1 (stereo not shown) [Example 44] |
| 0.05 to 0.1 µM | > 0.1 µM | – | – | < 1.9 µM | < 2 µM | – | CN(C)Cc1c(F)ccc(N2CC[C@](N)(C(=O)NC3CC3)C2)c1Cn1cnc2c(N)ncnc21 [Example 45, (R)-3-amino-1-(2-((6-amino-9H-purin-9-yl)methyl)-3-((dimethylamino)methyl)-4-fluorophenyl)-N-cyclopropylpyrrolidine-3-carboxamide] |
| < 0.05 µM | < 0.06 µM | – | – | < 1.9 µM | < 2 µM | – | Nc1ncnc2c1ncn2Cc1c(N2CC[C@](N)(C(=O)N[C@H]3C[C@@H]3c3ccccc3)C2)ccc(F)c1CN1CCOCC1 [Example 51] |
| 0.05 to 0.1 µM | 0.06 to 0.1 µM | – | – | < 1.9 µM | < 2 µM | – | Nc1ncnc2c1ncn2Cc1c(N2CC[C@](N)(C(=O)NC3CC3)C2)ccc(F)c1CN1CC(F)(F)C1 [Example 52] |
| < 0.05 µM | < 0.06 µM | – | – | < 1.9 µM | < 2 µM | – | Nc1ncnc2c1ncn2Cc1c(N2CC[C@](N)(C(=O)NC3CC3)C2)ccc(C(F)(F)F)c1CN1CCC1 [Example 62] |
| > 0.1 µM | > 0.1 µM | – | – | > 3 µM | – | – | CN(C)Cc1c(F)cc(Cl)c(N2CC[C@](N)(C(=O)NC3CC3)C2)c1Cn1cnc2c(N)ncnc21 [Example 72, (R)-3-amino-1-(2-((6-amino-9H-purin-9-yl)methyl)-6-chloro-3-((dimethylamino)methyl)-4-fluorophenyl)-N-cyclopropylpyrrolidine-3-carboxamide] |
| 0.05 to 0.1 µM | > 0.1 µM | – | – | > 3 µM | – | – | Nc1ncnc2c1ncn2Cc1c(CN2CCOCC2)c(F)cc(Cl)c1N1CC[C@](N)(C(=O)NC2CC2)C1 [Example 75] |
| < 0.05 µM | > 0.1 µM | – | – | > 3 µM | – | – | Cn1nnnc1[C@@]1(N)CCN(c2cc(Cl)cc(Br)c2Cn2cnc3c(N)ncnc32)C1 [Example 90, (R)-9-(2-(3-amino-3-(1-methyl-1H-tetrazol-5-yl)pyrrolidin-1-yl)-6-bromo-4-chlorobenzyl)-9H-purin-6-amine] |
| > 0.1 µM | > 0.1 µM | – | – | > 3 µM | – | – | CC1(C)Cc2ccc(N3CC[C@](N)(C(=O)NC4CC4)C3)c(Cn3cnc4c(N)ncnc43)c2O1 [Example 114] |
| 0.05 to 0.1 µM | < 0.06 µM | – | – | > 3 µM | – | – | Nc1ncnc2c1ncn2Cc1c(Br)cc2c(c1N1CCC(N)(C(=O)NC3CC3)C1)CCO2 (stereo not shown) [Example 115] |
| – | – | – | – | < 1.9 µM | < 2 µM | < 0.05 µM | C=Cc1c(Cl)ccc(N2CC[C@](N)(C(=O)NC3CC3)C2)c1Cn1cnc2c(N)ncnc21 [Example 163] |
| – | – | – | – | < 1.9 µM | < 2 µM | 0.05 to 0.1 µM | Nc1ncnc2c1ncn2Cc1c(Cl)cccc1N1CCC(N)(C(=O)NC2CC2)C1 (stereo not shown) [Example 164] |
| – | – | – | – | < 1.9 µM | < 2 µM | 0.05 to 0.1 µM | CCc1c(Cl)ccc(N2CC[C@](N)(C(=O)NC3CC3)C2)c1Cn1cnc2c(N)ncnc21 [Example 165] |
| – | – | – | – | < 1.9 µM | < 2 µM | 0.05 to 0.1 µM | COc1ccc(N2CC[C@](N)(C(=O)NC3CC3)C2)c(Cn2cnc3c(N)ncnc32)c1Br [Example 168] |
| – | – | – | – | < 1.9 µM | < 2 µM | 0.05 to 0.1 µM | CCc1cccc(N2CC[C@](N)(C(=O)NC3CCCC3)C2)c1Cn1cnc2c(N)ncnc21 [Example 169] |

Further lines, the compound ahead of its results:

| SMILES | IC50 ([1]; read-out: LCMS) | IC50 [2] | IC50 ([3]; 48 hours) | IC50 [4] | IC50 ([3]; Homo sapiens, MV4-11, 48 h) | IC50 ([4]; Homo sapiens, MV4-11, 144 h) | IC50 ([1]; read-out: MLL1 LCMS) |
| --- | --- | --- | --- | --- | --- | --- | --- |
| Nc1ncnc2c1ncn2Cc1c(Br)cc(Cl)cc1N1CC[C@](N)(C(=O)NC2CC2)C1 [Example 1, (R)-3-amino-1-(2-((6-amino-9H-purin-9-yl)methyl)-3-bromo-5-chlorophenyl)-N-cyclopropylpyrrolidine-3-carboxamide] | < 0.05 µM | < 0.06 µM | – | – | < 1.9 µM | 2 to 3 µM | – |
| CCc1cc(Cl)cc(N2CC[C@](N)(C(=O)NC3CC3)C2)c1Cn1cnc2c(N)ncnc21 [Example 2, (R)-3-amino-1-(2-((6-amino-9H-purin-9-yl)methyl)-5-chloro-3-ethylphenyl)-N-cyclopropylpyrrolidine-3-carboxamide] | < 0.05 µM | < 0.06 µM | – | – | < 1.9 µM | < 2 µM | – |
| Nc1ncnc2c1ncn2Cc1c(-c2ccc3c(c2)CCO3)cc(Cl)cc1N1CC[C@](N)(C(=O)NC2CC2)C1 [Example 3] | > 0.1 µM | > 0.1 µM | – | – | > 3 µM | > 3 µM | – |
| N#Cc1c(F)ccc(N2CC[C@](N)(C(=O)NC3CC3)C2)c1Cn1cnc2c(N)ncnc21 [Example 4] | > 0.1 µM | > 0.1 µM | – | – | 1.9 to 3 µM | > 3 µM | – |
| Nc1ncnc2c1ncn2Cc1cc(F)ccc1N1CC[C@](N)(C(=O)NC2CC2)C1 [Example 14] | > 0.1 µM | > 0.1 µM | – | – | < 1.9 µM | 2 to 3 µM | – |
| Nc1ncnc2c1ncn2Cc1c(N2CC[C@](N)(C(=O)NC3CC3)C2)ccc2c1OC(F)(F)O2 [Example 15] | < 0.05 µM | < 0.06 µM | – | – | < 1.9 µM | < 2 µM | – |
| NC(=O)[C@@]1(N)CCN(c2cc(Cl)cc(-c3cccc(C4CCCCC4)c3)c2Cn2cnc3c(N)ncnc32)C1 [Example 16] | > 0.1 µM | > 0.1 µM | – | – | < 1.9 µM | < 2 µM | – |
| C=CC(=O)N1CCN(C(=O)[C@@]2(N)CCN(c3ccc(F)c(CC)c3Cn3cnc4c(N)ncnc43)C2)CC1 [Example 17] | < 0.05 µM | < 0.06 µM | – | – | < 1.9 µM | < 2 µM | – |
| Nc1ncnc2c1ncn2Cc1c(Br)cc(Cl)cc1N1CC[C@](N)(c2nc[nH]n2)C1 [Example 18, (R)-9-(2-(3-amino-3-(1H-1,2,4-triazol-3-yl)pyrrolidin-1-yl)-6-bromo-4-chlorobenzyl)-9H-purin-6-amine] | < 0.05 µM | < 0.06 µM | – | – | < 1.9 µM | < 2 µM | – |
| Nc1ncnc2c1ncn2Cc1c(Br)cc(Cl)cc1N1CC[C@](N)(CO)C1 [Example 19] | 0.05 to 0.1 µM | < 0.06 µM | – | – | < 1.9 µM | 2 to 3 µM | – |
| Nc1ncnc2c1ncn2Cc1c(Br)c(F)c2c(c1N1CC[C@](N)(C(=O)NC3CC3)C1)OCC2 [Example 20] | < 0.05 µM | < 0.06 µM | – | – | < 1.9 µM | < 2 µM | – |
| Nc1ncnc2c1ncn2Cc1c(N2CCC(N)(c3ccccn3)C2)ccc(F)c1C(F)(F)F (stereo not shown) [Example 22] | 0.05 to 0.1 µM | 0.06 to 0.1 µM | – | – | < 1.9 µM | < 2 µM | – |
| Nc1ncnc2c1ncn2Cc1c(N2CC[C@](N)(c3ccccn3)C2)ccc(F)c1C(F)(F)F [Example 23] | < 0.05 µM | < 0.06 µM | – | – | < 1.9 µM | < 2 µM | – |
| Nc1ncnc2c1ncn2Cc1c(N2CC[C@](N)(CCc3ccccn3)C2)ccc(F)c1C(F)(F)F [Example 28] | > 0.1 µM | > 0.1 µM | – | – | > 3 µM | – | – |
| Nc1ncnc2c1ncn2Cc1c(Br)cc2c(c1N1CCC(N)(C(=O)NC3CC3)C1)OCO2 (stereo not shown) [Example 31] | < 0.05 µM | < 0.06 µM | – | – | < 1.9 µM | < 2 µM | – |
